Where “and” joins values, the source holds several entries; their conditions need not be identical. Equal entries are not always repeated. Where a SMILES comes first, the peptide text is derived from it. [ ]: non-standard residue; d: D form. Phe(4-Cl) = N[CH](Cc1ccc(Cl)cc1)C(=O)O; 3Pal = N[CH](Cc1cccnc1)C(=O)O
Biological target: T1, ATX (Homo sapiens, UniProt Q13822)
T1 construct: conditioned serum-free medium (CCM) from MDA-MB-435 cells as the source of ATX; endogenous in cells; host or cells: MDA-MB-435 cells (about 10x concentrated conditioned serum-free medium)
Experiment: ATX inhibition assay (FS-3 substrate)
Format: biochemical
Settings: for % Response: preliminary screen, FS-3 hydrolysis at one hour, normalized to vehicle control, mean±S.D., same values given at 10 μM in Table 5; for % ATX Acitivity (10 μM): 10 μM compound; for % ATX Acitivity (10 μM) / IC50: FS-3 substrate
Protocol: ATX inhibition was assayed using the substrate FS-3 (Echelon Biosciences, Inc., Salt Lake City, Utah, USA). The FS-3 assay used ˜10 times concentrated conditioned serum-free medium (CCM) from MDA-MB-435 cells as the source of ATX, while CCM comprised one-third of the total volume. The final volume for FS-3 was comprised of the substrate at varying concentrations and 30 μM charcoal-stripped fatty acid free BSA (Sigma Aldrich) in assay buffer (1 mM each CaCl2 and MgCl2, 5 mM KCl, 140 mM NaCl, 50 mM Tris pH 8.0).
All assays were performed in 96-well plates with data read at 1 minute intervals by a Synergy2 system (BioTek, Winooski, Vt.). The fluorescence produced upon the hydrolysis of FS-3 was monitored using an excitation wavelength of 485 nm and an emission wavelength of 528 nm at 37° C. (Ferguson et al., 2006). […] All readings were normalized to vehicle control after subtraction of fluorescence in the absence of CCM. Data are shown as the mean±S.D. of at least three wells.

[1] = Calculated IC50 data for the 30 active compounds

| SMILES | % Response | further results |
| --- | --- | --- |
| O=C(Nc1ccc2cc(S(=O)(=O)O)cc(O)c2c1)Nc1ccc2cc(S(=O)(=O)O)cc(O)c2c1 [compound 37204] | 106 ± 60.5% |  |
| Cc1cc(C(O)(c2ccc(Nc3ccccc3)cc2)c2ccc(Nc3ccc(S(=O)(=O)O)cc3)cc2)ccc1N (stereo not drawn) [NSC 5014] |  | % ATX Acitivity (10 μM): 39 ± 4.3%; IC50 (Table 5): 1.27 µM |
| O=C(Nc1ccc(C(=O)Nc2cc(S(=O)(=O)O)cc3cccc(S(=O)(=O)O)c23)cc1)Nc1ccc(C(=O)Nc2cc(S(=O)(=O)O)cc3cccc(S(=O)(=O)O)c23)cc1.[Na+] [compound 12188] | 105 ± 8.0% |  |
| Nc1c(N=Nc2ccc([N+](=O)[O-])cc2)c(S(=O)(=O)O)cc2cc(S(=O)(=O)O)c(N=Nc3ccccc3)c(O)c12 [compound 7820] | 110 ± 5.7% |  |
| Nc1ccc2cc(S(=O)(=O)O)c(/N=N/c3ccc(-c4ccc(/N=N/c5c(S(=O)(=O)O)cc6cc(S(=O)(=O)O)cc(N)c6c5O)cc4)cc3)c(O)c2c1 [NSC 75779] |  | % ATX Acitivity (10 μM): 20 ± 5.7%; IC50 (Table 5): 1.26 µM |
| O=C(NC(CSSCC(NC(=O)c1ccc([N+](=O)[O-])cc1)C(=O)O)C(=O)O)c1ccc([N+](=O)[O-])cc1 (stereo not drawn) [compound 2532] | 95 ± 5.7% |  |
| O=C(N/N=C\c1ccc(O)c(S(=O)(=O)O)c1)N/N=C/c1ccc(O)c(S(=O)(=O)O)c1.[Na+] [compound 48776] | 94 ± 3.5% |  |
| NC(=N\N=C/c1ccccc1S(=O)(=O)O)/C(N)=N\N=C/c1ccccc1S(=O)(=O)O.[Na+] [compound 47471] | 95 ± 3.0% |  |
| Nc1ccc(C(=O)Nc2ccc(C(=O)Nc3ccc4c(O)cc(S(=O)(=O)O)cc4c3)cc2)cc1 [compound 1741] | 60 ± 4.6% |  |
| Cc1cc(S(=O)(=O)O)ccc1N=c1ccc2c(-c3ccccc3C(=O)[O-])c3ccc(Nc4ccccc4C)cc3oc-2c1.[Na+] [compound 11246] | 42 ± 6.0% | IC50 [1]: 10.2 µM |
| NS(=O)(=O)c1ccc(N=NNc2ccc(C(=O)O)cc2)cc1.[Na+] [compound 13232] | 101 ± 9.0% |  |
| O=C(Nc1ccc2c(O)cc(S(=O)(=O)[O-])cc2c1)Nc1ccc2c(O)c(N=Nc3ccc4cc(S(=O)(=O)[O-])ccc4c3)c(S(=O)(=O)[O-])cc2c1.[Na+].[Na+].[Na+] [compound 45616] | 64 ± 3.0% |  |
| Cc1ccc(C(=O)Nc2ccc(S(=O)(=O)O)c3cc(S(=O)(=O)O)cc(S(=O)(=O)O)c23)cc1NC(=O)c1cccc(NC(=O)Nc2cccc(C(=O)Nc3cc(C(=O)Nc4ccc(S(=O)(=O)O)c5cc(S(=O)(=O)O)cc(S(=O)(=O)O)c45)ccc3C)c2)c1.Cc1ccc(C)c2c1c(NCCCCCCNc1cc(C)[n+](C)c3c(C)ccc(C)c13)cc(C)[n+]2C [compound 32275] | 94 ± 6.5% |  |
| O=C1C(Cl)=C(Nc2ccc(C(=O)Nc3ccc4cc(S(=O)(=O)O)cc(S(=O)(=O)O)c4c3)cc2)C(=O)C(Cl)=C1Nc1ccc(C(=O)Nc2ccc3cc(S(=O)(=O)O)cc(S(=O)(=O)O)c3c2)cc1.[Na+] [compound 12859] | 27 ± 2.8% | IC50 [1]: 0.805 µM |
| Nc1c(N=Nc2ccc(S(=O)(=O)O)cc2)cc(S(=O)(=O)O)c2ccc(N=Nc3ccc([N+](=O)[O-])cc3)c(O)c12.[Na+] [compound 47725] | 116 ± 4.2% |  |
| O=C(Nc1ccc2c(O)c(N=Nc3ccccc3)c(S(=O)(=O)[O-])cc2c1)Nc1ccc2c(O)c(N=Nc3ccccc3)c(S(=O)(=O)[O-])cc2c1.[Na+].[Na+] [compound 47749] | 103 ± 58.1% |  |
| CC(=O)NS(=O)(=O)c1ccc(NC(=O)c2ccccc2C(=O)O)cc1 [compound 4368] | 99 ± 2.8% |  |
| Cc1ccc(C(=O)Nc2ccc(S(=O)(=O)O)c3cc(S(=O)(=O)O)cc(S(=O)(=O)O)c23)cc1NC(=O)c1cccc(NC(=O)Nc2cccc(C(=O)Nc3cc(C(=O)Nc4ccc(S(=O)(=O)O)c5cc(S(=O)(=O)O)cc(S(=O)(=O)O)c45)ccc3C)c2)c1 [compound 34936] | 73 ± 9.0% and 83 ± 5.8% |  |
| O=C(Nc1cccc(C(=O)Nc2ccc3cc(S(=O)(=O)O)cc(S(=O)(=O)O)c3c2)c1)Nc1cccc(C(=O)Nc2ccc3cc(S(=O)(=O)O)cc(S(=O)(=O)O)c3c2)c1.[Na+] [compound 12856] | 71 ± 5.4% |  |
| O=C(Nc1ccc2c(O)cc(S(=O)(=O)O)cc2c1)Nc1ccc2c(O)cc(S(=O)(=O)O)cc2c1 [compound 45174] | 89 ± 3.2% |  |
| O=C(O)c1ccccc1N=N/C(=N\Nc1cc(S(=O)(=O)O)ccc1O)c1ccccc1 [compound 5359] | 94 ± 2.6% |  |
| O=C(N/N=C/c1ccc(O)c(S(=O)(=O)O)c1)C(=O)N/N=C/c1ccc(O)c(S(=O)(=O)O)c1.[Na+] [compound 55736] | 95 ± 3.9% |  |
| Nc1c(N=Nc2ccc([N+](=O)[O-])cc2)c(S(=O)(=O)O)cc2cc(S(=O)(=O)O)c(N=Nc3ccc(-c4ccc(N=Nc5ccc(O)cc5)cc4)cc3)c(O)c12.[Na+] [compound 47752] | 52 ± 5.4% |  |

Second part, led by results:

| % Response | SMILES | further results |
| --- | --- | --- |
| 97 ± 2.4% | CCCCCCCCCCCCCCCCOc1ccc(S(=O)(=O)N/N=c2/sc3ccc(S(=O)(=O)O)cc3n2C)cc1C(=O)O [compound 270069] |  |
| 62 ± 2.8% | COc1cc(-c2ccc(N=Nc3c(S(=O)(=O)O)cc4cc(S(=O)(=O)O)c(N=Nc5ccc([N+](=O)[O-])cc5)c(N)c4c3O)c(OC)c2)ccc1N=Nc1ccc(N)cc1C.[Na+] [compound 79737] |  |
| 96 ± 3.7% | O=C(/C=C/c1ccc(O)c(O)c1)NCC(=O)NC(Cc1ccccc1)C(=O)O (stereo not drawn) [compound 332542] |  |
| 76 ± 5.1% | Nc1c(N=Nc2ccc([N+](=O)[O-])cc2)c(S(=O)(=O)O)cc2cc(S(=O)(=O)O)c(N=Nc3ccc([N+](=O)[O-])cc3)c(O)c12.[Na+] [compound 65544] |  |
| 32 ± 2.6% | Cc1c(N)cc(S(=O)(=O)O)c(N=Nc2ccc(-c3ccc(N=Nc4c(S(=O)(=O)O)cc5cc(S(=O)(=O)O)c(N=Nc6cccc([N+](=O)[O-])c6)c(N)c5c4O)cc3)cc2)c1N.[Na+] [compound 80903] | IC50 [1]: 5.88 µM |
| 96 ± 2.5% | CC(=O)NC(Cc1ccc(Cl)cc1)C(=O)NC(Cc1ccc(Cl)cc1)C(=O)NC(Cc1cccnc1)C(=O)NC(CO)C(=O)NC(Cc1ccc(O)cc1)C(=O)NC(CCCN=C(N)N)C(=O)NC(CC(C)C)C(=O)NC(CCCN=C(N)N)C(=O)N1CCCC1C(=O)NC(C)C(=O)O (stereo not drawn) [compound 373963] (Ac-[Phe(4-Cl)][Phe(4-Cl)][3Pal]SYRLRPA-OH; configuration not given here) |  |
| 20 ± 3.7% | Cc1cccc(N=Nc2c(S(=O)(=O)O)cc3cc(NC(=O)Nc4ccc5c(O)c(N=Nc6ccc7cc(S(=O)(=O)O)ccc7c6)c(S(=O)(=O)O)cc5c4)ccc3c2O)c1.[Na+] [compound 65574] | IC50 [1]: 12 µM |
| 100 ± 4.2% | COc1ccc(/C=N/NC(=O)C(=O)N/N=C/c2ccc(OC)c(S(=O)(=O)O)c2)cc1S(=O)(=O)O [compound 56207] |  |
| 48 ± 4.8% | Nc1ccc(N=Nc2ccc(-c3ccc(N=Nc4c(S(=O)(=O)O)cc5cc(S(=O)(=O)O)c(N=Nc6ccc([N+](=O)[O-])cc6)c(N)c5c4O)cc3)cc2)c(N)c1.[Na+] [compound 65848] | IC50 [1]: 15.2 µM |
| 56 ± 4.9% | Nc1c(N=Nc2ccc([N+](=O)[O-])cc2)c(S(=O)(=O)O)cc2cc(S(=O)(=O)O)c(N=Nc3ccc(-c4ccc(O)cc4)cc3)c(O)c12.[Na+] [compound 65560] |  |
| 94 ± 3.6% | COc1nc(Nc2ccc(/C=C/c3ccc(Nc4nc(OC)nc(N(CCO)CCO)n4)cc3S(=O)(=O)[O-])c(S(=O)(=O)[O-])c2)nc(N(CCO)CCO)n1.[Na+].[Na+] [compound 306423] |  |
| 73 ± 4.5% | Cc1ccccc1N=C(N)Nc1ccccc1C.Nc1c(N=Nc2ccc([N+](=O)[O-])cc2)c(S(=O)(=O)O)cc2cc(S(=O)(=O)O)c(N=Nc3ccc(Sc4ccc(N=Nc5ccc(O)cc5)cc4)cc3)c(O)c12 [compound 80902] |  |
| 33 ± 3.7% | Cc1ccc(N=Nc2c(S(=O)(=O)[O-])cc3cc(NC(=O)Nc4ccc5c(O)c(N=Nc6ccc7cc(S(=O)(=O)[O-])ccc7c6)c(S(=O)(=O)[O-])cc5c4)ccc3c2O)c(C)c1.[Na+].[Na+].[Na+] [compound 65575] | IC50 [1]: 18.6 µM |
| 51 ± 4.4% | Cc1[nH]n(-c2cc(S(=O)(=O)O)ccc2Cl)c(=O)c1N=Nc1c(NC(=O)c2ccc(N)cc2)ccc2cc(S(=O)(=O)O)ccc12.[Na+] [compound 75963] |  |
| 42 ± 3.5% | Cc1cc(N)ccc1N=Nc1ccc(-c2ccc(N=Nc3c(S(=O)(=O)O)cc4cc(S(=O)(=O)O)c(N=Nc5ccc([N+](=O)[O-])cc5)c(N)c4c3O)cc2)cc1.[Na+] [compound 65851] | IC50 [1]: 9.5 µM |
| 71 ± 4.4% | Cc1cc(N=Nc2ccc(S(=O)(=O)[O-])cc2)c(N)c(N=Nc2ccc(S(=O)(=O)[O-])cc2)c1N.[Na+].[Na+] [compound 65540] |  |
| 30 ± 4.9% | COc1cc(N=Nc2c(S(=O)(=O)O)cc3cc(NC(=O)Nc4ccc5c(O)c(N=Nc6ccc7cc(S(=O)(=O)O)ccc7c6)c(S(=O)(=O)O)cc5c4)ccc3c2O)c(C)cc1N [compound 58058] | IC50 [1]: 13.8 µM |
| 83 ± 3.2% | Nc1c(N=Nc2ccc([N+](=O)[O-])cc2)c(S(=O)(=O)O)cc2cc(S(=O)(=O)O)c(N=Nc3ccc(Sc4ccc(N=Nc5ccc(O)cc5)cc4)cc3)c(O)c12.[Na+] [compound 79723] |  |

Reference: US8343934B2, “Diverse lead compound autotaxin inhibitors” (University of Memphis, priority 2009, dated 2013)
